# Measurements taken from patent publication US8853228B2, “Heterocyclic analogs of propargyl-linked inhibitors of dihydrofolate reductase” (University of Connecticut, priority 2011, dated 2014).
# Where two headings read alike, the source gives them in different places.
# Experiments:
# [1] = molecular target: ChDHFR-TS (Cryptosporidium hominis, UniProt Q27552); experiment: ChDHFR enzyme inhibition assay; assay type: biochemical
# Method: (§1) Enzyme and inhibitor were allowed to incubate for 5 min before adding dihydrofolate to initiate the reaction. Enzyme assays were performed at least four times. IC50 values and their standard deviations were calculated in the presence of varying concentrations of inhibitor near the IC50 concentration.
# Compounds were evaluated in spectrophotometric enzyme assays using ChDHFR-TS and hDHFR. Inhibition constants (IC50) were measured (see Table 4). […] The compound abbreviations in Table 4 refer to the following compounds: […]
# [2] = molecular target: CgDHFR (Candida glabrata (strain ATCC 2001 / BCRC 20586 / JCM 3761 / NBRC 0622 / NRRL Y-65 / CBS 138) (Yeast) (Nakaseomyces glabratus), UniProt Q6FPH0); experiment: biochemical; details: for Selectivity: Table 7, hDHFR vs CgDHFR
# Sequence of CgDHFR (Q6FPH0 1-217): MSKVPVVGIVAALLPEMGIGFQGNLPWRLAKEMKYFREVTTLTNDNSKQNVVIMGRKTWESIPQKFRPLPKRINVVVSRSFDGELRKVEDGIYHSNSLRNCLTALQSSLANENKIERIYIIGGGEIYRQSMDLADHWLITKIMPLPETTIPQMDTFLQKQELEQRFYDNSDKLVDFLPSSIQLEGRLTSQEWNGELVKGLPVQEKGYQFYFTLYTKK
# Description: CgDHFR: The gene coding CgDHFR was amplified by PCR from C. glabrata genomic DNA obtained from ATCC. The gene was inserted in a pET41 vector that includes a C-terminal histidine tag for nickel affinity chromatography. E. coli cells were transformed and the resulting plasmid was verified by sequencing. The protein was expressed in E. coli BL21(DE3) cells with isopropyl β-D-thiogalactoside induction. Following growth, the cells were lysed with BugBuster (Novagen) and centrifuged; the supernatant was loaded on a Ni-NTA column. The column was washed with 20 mM Tris (pH 8.0)/0.4 M NaCl and the protein was eluted using a gradient of 20 mM Tris (pH 8.0), 0.3 M NaCl, 20% glycerol, 0.1 mM EDTA, 2 mM DTT, 250 mM imidazole. Fractions containing CgDHFR were identified by SDS-PAGE, combined and desalted using a PD-10 column with a buffer containing 20 mM Tris pH 8.0, 20% glycerol, 0.1 mM EDTA and 2 mM DTT. The protein was concentrated to 13 mg/mL.
# as §1
# [3] = tested on: C. glabrata; experiment: Antifungal assay (MIC, Alamar Blue); assay type: cell-based, Candida glabrata; details: for MIC (Cg): YM media
# Method: Antifungal assays were performed using C. glabrata as a suspension in 50% glycerol at −78° C. For susceptibility testing, a streak of stock culture was made on SDA agar and grown at 30° C. for 48 h. One pure colony of the test organism was recovered from the plate, suspended in appropriate media and grown in a 5 mL shake flask culture. A sample of the shake flask culture was diluted to 1×10^5 cells/mL in media and added to 96-well test plates (100 μL per well) containing test compounds dispensed in DMSO (1 μL). Amphotericin and ketoconazole were used as controls. After an incubation period determined from the strain specific doubling time, Alamar Blue (10 μL) was added, allowed to incubate; each well was scored for dye reduction.
# Several representative compounds were also evaluated in thymidine-depleted media. It has been shown that high levels of thymidine interfere with accurate susceptibility testing of antifolates. To compensate for this, antifolates are frequently evaluated in a controlled minimal media with a low thymidine concentration. […] In addition, the compounds were also evaluated for mammalian cell toxicity using MCF-10 and HepG2 cell lines. Cellular selectivity is reported as the IC50 value for the MCF-10 human cell line divided by the MIC value (μg/mL) (Table 8).
# [4] = tested on: MCF-10 cells; experiment: Mammalian cell toxicity, MCF-10; assay type: cell-based, human; details: cytotoxicity, Table 6
# Method: Adherent cell lines were maintained in Eagle's Minimal Essential Media (Sigma-Aldrich, St. Louis, Mo., USA) with 2 mM glutamine and Earle's Balanced Salt Solution (HyClone, Logan, Utah, USA) adjusted to contain 1.5 g/L sodium bicarbonate, 0.1 mM non-essential amino acids, 1 mM sodium pyruvate and 10% fetal calf serum. Fetal calf serum used in these assays was lot matched throughout. […] Toxicity assays were conducted between passages 10-20. Target compound toxicity was measured by incubating the test compound with the cells for 4 h, washing the cells and finally treating the cells with Alamar Blue. After 12-24 h, the fluorescence of the reduced dye was measured. Fluorescence intensity as a function of test compound concentration was fit to the Fermi equation, using non-linear least squares regression analysis, to estimate IC50 values.
# [5] = molecular target: S. aureus DHFR (Staphylococcus aureus, UniProt P0A017); assay type: biochemical; details: average of at least three measurements
# Method: (§2) Enzyme inhibition assays were performed by monitoring the rate of NADPH oxidation by the DHFR enzyme at an absorbance of 340 nm. Assays were performed in the presence of saturating concentrations of NADPH and initiated with dihydrofolate. All assays were completed at 25° C. in a buffer containing 20 mM TES pH 7.0, 50 mM KCl, 10 mM 2-mercaptoethanol, 0.5 mM EDTA and 1 mg/mL BSA. Inhibition was measured at least three times with inhibitor concentrations near the IC50 value and the average IC50 value is reported with a standard deviation.
# [6] = molecular target: S. pyogenes DHFR (Streptococcus pyogenes, UniProt Q9A091); experiment: S. pyogenes DHFR enzyme inhibition assay; assay type: biochemical; details: average of at least three measurements
# Sequence of S. pyogenes DHFR (Q9A091 1-165): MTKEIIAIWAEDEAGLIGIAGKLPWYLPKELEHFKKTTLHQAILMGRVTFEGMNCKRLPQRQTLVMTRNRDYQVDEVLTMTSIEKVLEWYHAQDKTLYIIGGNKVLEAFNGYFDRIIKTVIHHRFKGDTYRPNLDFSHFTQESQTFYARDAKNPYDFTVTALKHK
# Method: as §2
# [7] = tested on: S. aureus 13709 (MRSA); experiment: Antibacterial MIC, broth microdilution with Alamar Blue; assay type: cell-based, Staphylococcus aureus; details: for MIC MRSA: Table 6
# Method: (§3) For susceptibility testing, 10 μL of glycerol stock was suspended in a 10 mL shake flask culture of chemically defined Isosensitest broth (Oxoid) supplemented with 2% w/v glucose. A sample of the shake flask culture was diluted to 1×10^6 cells/mL in media and added to 96-well test plates (100 μL per well) containing test compounds dispensed in DMSO (2 μL). After an incubation period (30° C.) determined from the strain specific doubling time, a 0.03% w/v aqueous solution of resazurin (10 μL) was added and the plates were allowed to incubate; each well was then scored for dye reduction.
# [8] = tested on: Streptococcus pyogenes; experiment: as above; assay type: cell-based
# Method: as §3
# [9] = molecular target: hDHFR (Homo sapiens (Human), UniProt P00374); experiment: hDHFR enzyme inhibition assay; assay type: biochemical; details: read-out: IC50 (hDHFR)
# Sequence of hDHFR (P00374 whole entry): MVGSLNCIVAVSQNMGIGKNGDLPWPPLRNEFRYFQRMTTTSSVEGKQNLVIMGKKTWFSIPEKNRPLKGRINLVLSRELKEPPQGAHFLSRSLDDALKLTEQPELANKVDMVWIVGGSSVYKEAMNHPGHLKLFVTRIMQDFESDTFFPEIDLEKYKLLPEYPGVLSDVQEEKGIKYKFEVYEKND
# Method: hDHFR: The gene for hDHFR was amplified using PCR from cDNA obtained from ATCC. The gene was inserted in a pET41 vector with a C-terminal histidine tag for affinity chromatography. The resulting construct was verified by sequencing. The hDHFR protein was expressed in E. coli and purified using a nickel affinity column.
# as §1, §2
# [10] = Table 4, read-out: IC50 (ChDHFR)
# [11] = C. glabrata, Inact: not active at 2 mM (~600 μg/mL)
# [12] = Table 7, read-out: IC50 (CgDHFR)
# [13] = Table 11, read-out: CgDHFR IC50
# Sequence of ChDHFR-TS (Q27552 1-521): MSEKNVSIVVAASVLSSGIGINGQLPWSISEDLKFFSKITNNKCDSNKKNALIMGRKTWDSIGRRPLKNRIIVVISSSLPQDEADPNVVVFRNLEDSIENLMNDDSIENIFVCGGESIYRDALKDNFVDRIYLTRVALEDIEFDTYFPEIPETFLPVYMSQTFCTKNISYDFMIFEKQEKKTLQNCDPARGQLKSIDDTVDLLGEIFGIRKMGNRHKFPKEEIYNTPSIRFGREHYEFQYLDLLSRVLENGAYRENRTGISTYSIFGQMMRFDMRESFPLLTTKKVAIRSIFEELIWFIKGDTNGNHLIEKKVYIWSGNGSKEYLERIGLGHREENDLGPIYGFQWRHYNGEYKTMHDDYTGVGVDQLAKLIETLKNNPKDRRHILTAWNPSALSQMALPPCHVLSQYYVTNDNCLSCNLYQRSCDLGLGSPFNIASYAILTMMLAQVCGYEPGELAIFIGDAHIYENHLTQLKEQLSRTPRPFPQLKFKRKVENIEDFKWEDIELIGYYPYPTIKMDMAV
smiles,measurement,setting,value
"COc1cc(-c2ccccc2C)cc(C(C)C#Cc2c(C)nc(N)nc2N)c1 (stereo not shown) [Compound D6M, 5-[3-(5-methoxy-6′-methylbiphenyl-3-yl)but-1-yn-1-yl]-6-methylpyrimidine-2,4-diamine]",IC50,[1]; [10],0.0021 ± 0.0003 µM
COc1ccc(OC)c(CC#Cc2cnc(N)nc2N)c1 [Compound 9],IC50,"[2]; Table 3, read-out: CgDHFR IC50",0.021 µM
same,IC50,[2]; read-out: IC50 against CgDHFR,≤ 0.025 µM
same,Antifungal activity MIC,[3]; [11],72 µg/mL
"COc1cc(-c2ccccc2)cc([C@H](C)C#Cc2c(C)nc(N)nc2N)c1 (single isomer, unassigned) [D (S), 5-[3-(5-methoxy-biphenyl-3-yl)but-1-yn-1-yl]-6-methylpyrimidine-2,4-diamine]",IC50,"[1]; IC50 (ChDHFR), Table 4",0.03 µM
"COc1cc(C(C)c2cnc(N)nc2N)cc(OC)c1OC (racemic) [C7-methyl TMP (rac), reference compound]",IC50,[1]; read-out: IC50 against ChDHFR,340 µM
COc1cc(-c2ccc(C)cc2)cc([C@@H](C)C#Cc2c(C)nc(N)nc2N)c1 [Compound 141],IC50,[4],55 µM
same,IC50,[5],0.41 ± 0.036 µM
same,IC50 against CgDHFR,[2],subnanomolar
same,IC50,[2]; [12],0.0006 ± 0.0003 µM
same,IC50,[2]; [13],0.0006 µM
same,IC50,[6],0.35 ± 0.044 µM
same,MIC (Cg),[3]; C. glabrata,1.5 µg/mL
same,Antifungal activity MIC,"[3]; Table 11, C. glabrata",1.5 µg/mL
same,MIC MRSA,[7],0.71 µg/mL
same,MIC S. pyogenes,[8]; Table 6,0.024 µg/mL
COc1cc(-c2cc(C)cc(C)c2)cc([C@@H](C)C#Cc2c(C)nc(N)nc2N)c1 [Compound 140],IC50,[4],47 µM
same,IC50 against CgDHFR,[2],subnanomolar
same,IC50,[2]; [12],0.00055 ± 0.0003 µM
same,IC50,[2]; [13],0.00055 µM
same,MIC (Cg),[3]; C. glabrata,3.1 µg/mL
same,Antifungal activity MIC,"[3]; Table 11, C. glabrata",3 µg/mL
same,MIC S. aureus / MRSA,[7],5.8 µg/mL
same,MIC MRSA,[7],5.76 µg/mL
same,MIC S. pyogenes,[8],0.1 µg/mL
same,MIC S. pyogenes,[8]; Table 6,0.097 µg/mL
CCc1nc(N)nc(N)c1C#CCc1cc(OC)ccc1OC [Compound 11],IC50,"[2]; Table 3, read-out: CgDHFR IC50",0.0082 µM
same,IC50,[2]; read-out: IC50 against CgDHFR,≤ 0.025 µM
same,Antifungal activity MIC,[3]; [11],78 µg/mL
"COc1cc(C(O)C#Cc2c(C)nc(N)nc2N)cc(OC)c1OC (stereo not shown) [Compound 7, 3-(2,4-diamino-6-methylpyrimidin-5-yl)-1-(3,4,5-trimethoxyphenyl)prop-2-yn-1-ol]",IC50,"[2]; CgDHFR IC50, Table 3",0.039 µM
same,Antifungal activity MIC,[3]; [11],Inact
COc1cc(C(C)C#Cc2c(C)nc(N)nc2N)cc(N2CCN(C)CC2)c1 (stereo not shown) [Compound 158],Selectivity,[2],9 ± 1
same,IC50,[2]; [12],0.03 ± 0.003 µM
same,MIC (Cg),[3]; C. glabrata,95 µg/mL
same,IC50,[9]; Table 7,0.28 ± 0.017 µM
"COc1cc(C(C)C#Cc2cnc(N)nc2N)cc(OC)c1OC (stereo not shown) [Compound 2, 2,4-Diamino-5-(3-(3,4,5-trimethoxyphenyl)but-1-ynyl)pyrimidine]",IC50,"[2]; Table 3, read-out: CgDHFR IC50",0.036 µM
same,Antifungal activity MIC,[3]; [11],Inact
"COc1cc(C(C#Cc2cnc(N)nc2N)OC)cc(OC)c1OC (stereo not shown) [Compound 4, 5-[3-methoxy-3-(3,4,5-trimethoxyphenyl)prop-1-yn-1-yl]pyrimidine-2,4-diamine]",IC50,"[2]; Table 3, read-out: CgDHFR IC50",0.45 µM
same,Antifungal activity MIC,[3]; [11],Inact
COc1ccc(OC)c(CC#Cc2c(C)nc(N)nc2N)c1 [Compound 10],IC50,"[2]; Table 3, read-out: CgDHFR IC50",0.032 µM
same,Antifungal activity MIC,[3]; [11],56 µg/mL
"COc1cc(-c2c(C)cccc2C)ccc1C(C)C#Cc1c(C)nc(N)nc1N (stereo not shown) [Compound F26M, 5-[3-(3-methoxy-2′6′-dimethylbiphenyl-4-yl)but-1-yn-1-yl]-6-methylpyrimidine-2,4-diamine]",Selectivity Ratio (IC50 ChDHFR/IC50 hDHFR),[1]; Table 4,455
same,IC50,[1]; [10],0.0074 ± 0.0019 µM
same,IC50,[9]; Table 4,3.37 ± 0.015 µM
"COc1cc(C(C#Cc2c(C)nc(N)nc2N)OC)cc(OC)c1OC (stereo not shown) [Compound 8, 5-[3-methoxy-3-(3,4,5-trimethoxyphenyl)prop-1-yn-1-yl]-6-methylpyrimidine-2,4-diamine]",IC50,"[2]; CgDHFR IC50, Table 3",0.03 µM
same,Antifungal activity MIC,[3]; [11],Inact
"COc1cc(-c2c(C(C)C)cccc2C(C)C)cc(C(C)C#Cc2c(C)nc(N)nc2N)c1 (stereo not shown) [Compound D26I, 5-[3-(5-methoxy-2′6′-diisopropylbiphenyl-3-yl)but-1-yn-1-yl]-6-methylpyrimidine-2,4-diamine]",IC50,[1]; [10],0.01 µM
"COc1cc(C(O)C#Cc2cnc(N)nc2N)cc(OC)c1OC (stereo not shown) [Compound 3, 3-(2,4-diaminopyrimidin-5-yl)-1-(3,4,5-trimethoxyphenyl)prop-2-yn-1-ol]",IC50,"[2]; Table 3, read-out: CgDHFR IC50",2.7 µM
same,MIC,"[3]; Nakaseomyces glabratus, C. glabrata, Inact: not active at 2 mM (~600 μg/mL), read-out: Antifungal activity MIC",328 µg/mL
"CN(Cc1cnc2nc(N)nc(N)c2n1)c1ccc(C(=O)N[C@@H](CCC(=O)O)C(=O)O)cc1 [methotrexate, (S)-2-(4-(((2,4-diaminopteridin-6-yl)methyl)methylamino)benzamido)pentanedioic acid, reference compound]",IC50,[1]; IC50 against ChDHFR,0.023 µM
"CCC(c1cc(OC)c(OC)c(OC)c1)c1cnc(N)nc1N (racemic) [C7-ethyl TMP (rac), reference compound]",IC50,[1]; read-out: IC50 against ChDHFR,4 µM
"COc1cc(-c2c(C)cccc2C)cc(C(C)C#Cc2c(C)nc(N)nc2N)c1 (stereo not shown) [Compound D26M, 5-[3-(5-methoxy-2′6′-dimethylbiphenyl-3-yl)but-1-yn-1-yl]-6-methylpyrimidine-2,4-diamine]",IC50,[1]; [10],0.0021 ± 0.0005 µM
"COc1cc(-c2ccccc2C)ccc1C(C)C#Cc1c(C)nc(N)nc1N (stereo not shown) [Compound F2M, 5-[3-(3-methoxy-2′-methylbiphenyl-4-yl)but-1-yn-1-yl]-6-methylpyrimidine-2,4-diamine]",IC50,"[1]; IC50 (ChDHFR), Table 4",0.036 ± 0.0006 µM
same,Selectivity Ratio (IC50 ChDHFR/IC50 hDHFR),[1]; Table 4,77
CCc1nc(N)nc(N)c1C#CC(C)c1cc(OC)cc(N2C[C@@H](C)O[C@@H](C)C2)c1 (mixture of isomers) [Compound 157],Selectivity,[2],5.0 ± 1
same,IC50,[2]; [12],0.038 ± 0.002 µM
same,MIC (Cg),[3]; C. glabrata,13 µg/mL
same,IC50,[9]; Table 7,0.2 ± 0.0045 µM
